pIC50: −log10 of the molar value.
molecular target: T1, human chemokine receptor 2 isoform B (Homo sapiens, UniProt P41597); experiment: Calcium mobilization assay (FLIPR, antagonist activity against MCP-1); type: cell-based; settings: Ca mobilisation assay, CHOK1-CCR2B-A5 cells, inhibition of calcium increase induced by 20 nM MCP-1
T1 construct: host or cells: CHOK1-CCR2B-A5 cells (CHO-K1)
T1 sequence (P41597 1-360 isoform P41597-2): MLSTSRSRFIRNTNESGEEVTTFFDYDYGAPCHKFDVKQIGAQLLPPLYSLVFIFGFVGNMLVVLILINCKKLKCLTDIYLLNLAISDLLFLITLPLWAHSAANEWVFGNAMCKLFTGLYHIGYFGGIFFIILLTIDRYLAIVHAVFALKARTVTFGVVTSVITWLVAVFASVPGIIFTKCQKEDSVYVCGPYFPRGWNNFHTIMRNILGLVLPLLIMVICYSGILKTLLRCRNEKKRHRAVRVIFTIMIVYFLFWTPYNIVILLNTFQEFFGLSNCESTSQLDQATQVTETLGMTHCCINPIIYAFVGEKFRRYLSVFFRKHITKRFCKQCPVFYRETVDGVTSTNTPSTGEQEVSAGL
Description: Calcium Mobilization Assay
CHOK1-CCR2B-A5 cells (from Euroscreen) stably overexpressing the human chemokine receptor 2 isoform B were cultured in Nutrient Hams F12 medium supplemented with 5% FBS, 100 U/ml penicillin, 100 μg/ml streptomycin, 400 μg/ml G418 and 5 μg/ml puromycin.
For the assay cells were grown overnight in 384-well black clear flat bottom polystyrene plates (Costar) at 37° C. at 5% CO2. After washing with DMEM, 20 mM Hepes, 2.5 mM probenecid, 0.1% BSA (DMEM assay buffer) cells were loaded with 4 μM Fluo-4 in the same DMEM assay buffer for 2 hours at 30° C. Excess dye was removed and cells were washed with DMEM assay buffer. 384-well compound plates were prepared with DMEM assay buffer/0.5% DMSO with or without various concentrations of test compounds. Usually compounds were tested for agonist and antagonist activity.
Test compounds were added to the assay plate and agonist activity was monitored as fluorescence for 80 seconds with a FLIPR (488 nm excitation; 510-570 nm emission; Molecular Devices). After 20-30 min. of incubation at 30° C., 20 nM MCP-1 (R&D; Roche) was added and fluorescence was monitored again for 80 seconds. Increases in intracellular calcium are reported as maximum fluorescence after agonist exposure minus basal fluorescence before exposure. Antagonist activity is indicated as inhibitor concentration required for 50% inhibition of specific calcium increases.

Row | pIC50 | Compound
1 | 5.79 | O=C(/C=C/c1ccc(Cl)c(Cl)c1)N1CCC(=O)N(CCC(=O)N2CCCCC2CO)CC1 (racemic) [Example 67, (rac)-1-[(E)-3-(3,4-Dichloro-phenyl)-acryloyl]-4-[3-(2-hydroxymethyl-piperidin-1-yl)-3-oxo-propyl]-[1,4]diazepan-5-one]
2 | 6.12 | O=C(/C=C/c1ccc(Cl)c(Cl)c1)N1CCC(=O)N(CCC(=O)N2CCCC(CO)C2)CC1 (racemic) [Example 68, (rac)-1-[(E)-3-(3,4-Dichloro-phenyl)-acryloyl]-4-[3-(3-hydroxymethyl-piperidin-1-yl)-3-oxo-propyl]-[1,4]diazepan-5-one]
3 | 5.89 | O=C(/C=C/c1ccc(Cl)c(Cl)c1)N1CCC(=O)N(CCC(=O)N2CCCC(O)C2)CC1 (racemic) [Example 70, (rac)-1-[(E)-3-(3,4-Dichloro-phenyl)-acryloyl]-4-[3-(3-hydroxy-piperidin-1-yl)-3-oxo-propyl]-[1,4]diazepan-5-one]
4 | 6.17 | CC1CCN(C(=O)CCN2CCN(C(=O)/C=C/c3ccc(Cl)c(Cl)c3)CCC2=O)CC1O (racemic) [Example 71, (rac)-1-[(E)-3-(3,4-Dichloro-phenyl)-acryloyl]-4-[3-(3-hydroxy-4-methyl-piperidin-1-yl)-3-oxo-propyl]-[1,4]diazepan-5-one]
5 | 5.81 | CC1(O)CCCN(C(=O)CCN2CCN(C(=O)/C=C/c3ccc(Cl)c(Cl)c3)CCC2=O)C1 (racemic) [Example 74, (rac)-1-[(E)-3-(3,4-Dichloro-phenyl)-acryloyl]-4-[3-(3-hydroxy-3-methyl-piperidin-1-yl)-3-oxo-propyl]-[1,4]diazepan-5-one]
6 | 6.01 | CC1(CO)CCCCN1C(=O)CCN1CCN(C(=O)/C=C/c2ccc(Cl)c(Cl)c2)CCC1=O (racemic) [Example 75, (rac)-1-[(E)-3-(3,4-Dichloro-phenyl)-acryloyl]-4-[3-(2-hydroxymethyl-2-methyl-piperidin-1-yl)-3-oxo-propyl]-[1,4]diazepan-5-one]
7 | 5.77 | CC1(CO)CCCN1C(=O)CCN1CCN(C(=O)/C=C/c2ccc(Cl)c(Cl)c2)CCC1=O (racemic) [Example 81, (rac)-1-[(E)-3-(3,4-Dichloro-phenyl)-acryloyl]-4-[3-(2-hydroxymethyl-2-methyl-pyrrolidin-1-yl)-3-oxo-propyl]-[1,4]diazepan-5-one]
8 | 6.39 | CC1(O)CCCN(C(=O)CN2CCN(C(=O)/C=C/c3ccc(Cl)c(Cl)c3)CCC2=O)C1 (racemic) [Example 100, (rac)-1-[(E)-3-(3,4-Dichloro-phenyl)-acryloyl]-4-[2-(3-hydroxy-3-methyl-piperidin-1-yl)-2-oxo-ethyl]-[1,4]diazepan-5-one]
9 | 7.50 | C[C@H]1C(=O)N(CCCC(=O)N2CC[C@](C)(CO)[C@H](O)C2)CCN1C(=O)Nc1cccc(Cl)c1 (racemic) [Example 114, (S)-4-[4-((3SR,4RS)-3-Hydroxy-4-hydroxymethyl-4-methyl-piperidin-1-yl)-4-oxo-bulyl]-2-methyl-3-oxo-piperazine-1-carboxylic acid (3-chloro-phenyl)-amide]
10 | 7.98 | C[C@H]1C(=O)N(CCC(F)C(=O)N2CCC3(CC3)[C@H](O)C2)CCN1C(=O)Nc1ccc(C(F)(F)F)c(Cl)c1 (single isomer, unassigned) [Example 137, (S)-4-[(R or S)-3-fluoro-4-((S)-4-hydroxy-6-aza-spiro[2.5]oct-6-yl)-4-oxo-butyl]-2-methyl-3-oxo-piperazine-1-carboxylic acid (3-chloro-4-trifluoromethyl-phenyl)-amide]
11 | 8.85 | C[C@H]1C(=O)N(CCC(F)C(=O)N2CCC3(CC3)[C@H](O)C2)CCN1C(=O)Nc1ccc(C(F)(F)F)c(Cl)c1 (single isomer, unassigned) [Example 138, (S)-4-[(S or R)-3-fluoro-4-((S)-4-hydroxy-6-aza-spiro[2.5]oct-6-yl)-4-oxo-butyl]-2-methyl-3-oxo-piperazine-1-carboxylic acid (3-chloro-4-trifluoromethyl-phenyl)-amide]

— patent US8445674B2, “Heterocyclyl compounds” (Hoffmann-La Roche Inc, priority 2009, dated 2013)
